Measured values from US11096952B2, “Chemicals and methods to prevent and treat TGF-beta mediated activation of fibroblasts to reduce and treat cancer and fibrosis” (Board of Supervisors of Louisiana State University and …, priority 2016, dated 2021).

Columns and labels:
[1] = system: TGF-β-induced fibronectin expression; experiment: Western blot of TGF-β-induced fibronectin expression in WPMY-1 fibroblasts; format: cell-based, human; conditions: for TGF-β-induced fibronectin expression, intracellular Ca2+ modulators (western blot): WPMY-1, 2.5-10 μM, 5 ng/ml TGF-β, 24 hours
Procedure: (§1) Inhibitors of CAF Differentiation. A. WPMY-1 cells were plated into each well of 4-chamber slice (for IF), or (C) in a 24 well plate (for western blot analysis). After cell attachment, vehicle or 5 ng/ml TGF-β was added into each well and incubated for 24 h in a 37° C. in a humidified incubator containing 5% CO2. For fluorescence detection (A), cells were fixed and stained with antibody detecting fibronectin and/or stained with DAPI to detect the nuclei. Protein was extracted with boiling Lamaelli buffer for WB (C) and blots were probed with anti-fibronectin or anti-tubulin antibodies. Fibronectin fluorescence (D and E) was measured in the presence or absence of TGF-β in 8 well replicates as follows. Cells were conditioned in serum-free DMEM for 48 hr prior to the addition of TGF-β. Images were acquired using a Cellomics platform with a mask shown in the schematic of (B). The mean of the total fluorescence intensity in each well was calculated from 300 cells per image field and up to 15 fields from each well for fibronectin. The fold change in fibronectin expression per acquired image (nuclei) is shown (Mean+/−SD).
Panel A1 is the control, Panel A2 is the TGF-β treated wells and Panel A3 is TGF-β plus PsA at 5 micromolar. Images were captured using the Cellomics imaging system.
Representative blots are shown with two exposures of fibronectin to account for strong signal intensity. n=3.
FIGS. 9A-9B: Increases in intracellular Ca^2+ prevent TGF-β-induced fibronectin expression. (A) WPMY-1 fibroblasts were treated with 2.5 μM thapsigargin±5 ng/ml TGF-β for 24 hours. (B) WPMY-1 fibroblasts were treated with 2.5-10 μM 3′,4′-dichlorobenzamil hydrochloride (DCB)±5 ng/ml TGF-β for 24 hours. Cell lysates were analyzed by western blot for fibronectin expression.
Because of the observed low nanomolar effective concentration of the cardiac glycosides, the inventors hypothesized that the cardiac glycosides may be acting by binding to their high affinity target, the Na^+/K^+ ATPase, and that action through the ATPase is the mechanism by which the cardiac glycosides are able to block TGF-β-induced fibronectin expression. It is well documented that inhibition of the Na^+/K^+ ATPase by digoxin leads to increases in intracellular Ca^2+ by preventing Ca^2+ efflux through the Na^+/Ca^2+ exchanger. In order to determine if increased intracellular Ca^2+ is sufficient to prevent TGF-β-induced fibronectin expression, the inventors utilized two compounds that increase intracellular Ca^2+ concentrations. 3′,4′-dichlorobenzamil hydrochloride (DCB) inhibits the Na^+/Ca^2+ exchanger, Na^+ transport, and sarcoplasmic reticulum Ca^2+ release channels. Thapsigargin inhibits the endoplasmic reticulum Ca^+ ATPase, preventing storage of Ca^2+ in the endoplasmic reticulurn, causing an accumulation in the cytoplasm. Cells were treated with 2.5-10 μM of DCB or thapsigargin±TGF-β for 24 hours.

WPMY-1 cells = experiment: Viability / metabolic activity assay on WPMY-1 cells; conditions: WPMY-1, compound at its IC50, up to 48 hours, 1% FBS DMEM, vs DMSO control
Procedure: Metabolically viable cells (indicated by bar; left y-axis) are indicated by fluorescent intensity (560/590 nm).
Cardiac glycosides have been shown previously to inhibit cell growth in a variety of cell types, in order to determine whether cardiac glycosides inhibited TGE-β-induced fibronectin expression by affecting metabolic activity, viability assays were performed on WPMY-1 cells over 48 hours in 1% FBS DMEM.

[2] = system: TGF-β-induced fibronectin; experiment: High content imaging (Cellomics) screen for inhibitors of fibronectin induction by TGF-beta in WPMY-1 cells; format: cell-based, human
Procedure: as §1, with “The fold change in fibronectin expression per acquired image (nuclei) is shown (Mean+/−SD).” left out
FIGS. 4A-4H: Dose response for identified hits. As shown in the four panels of FIG. 4A, fibronectin fluorescence was measured from images acquired following a Cellomics scan using WPMY-1 cells with concentrations of hits over a range of 0-100 uM. […] Results were expressed as percent inhibition caused by cells treated with TGF-β alone and without testing compound, which was considered as 100%. […]
FIGS. 14-15 show Table I—Prestwick Library and Table II—NIH Library chemicals respectively. […] A “hit” was defined as a compound causing at least 50% reduction of “Mean_RingTotal Intensity”, which is the fluorescence intensity within the defined ring (see FIG. 2) surrounding nucleus of each cell, summed for 300 cells per image and 15 fields per image. The solvent, 0.1% Dimethyl Sulfoxide (DMSO), with and without TGF-beta served as an internal control on each plate to normalize day-to-day and plate-to-plate variation with DMSO alone as low fluorescence (0%) and TGF-β treated as maximal fluorescence (100%). […]

[3] = system: activated fibroblast phenotype (fibronectin, YAP, TAZ, smooth muscle actin); experiment: Western blot of activated fibroblast markers (FN, YAP, TAZ, SMA) in MRC-5 lung fibroblasts induced by growth factors; format: cell-based, human
Procedure: FIG. 10C: MRC-5 lung fibroblast cells were serum-starved 24 hours then treated with 10 ng/mL TGF-β in serum-free media for 24 hours with or without verteporfin at the indicated concentration. FN: fibronectin, YAP: yes-activated protein, TAZ: transcriptional coactivator with PDZ-binding motif, and SMA(ACTA2): smooth muscle actin. Representative western blot is shown (n=3).
FIG. […] T.F.8: combination TGF, FGF, IL8. […] FN: fibronectin, YAP: yes-activated protein, TAZ: transcriptional coactivator with PDZ-binding motif, and SMA(ACTA2): smooth muscle actin. Representative western blot is shown (n=2).

[4] = system: TGF-β-induced fibronectin; conditions: MRC-5, 10 ng/mL TGF-β, 24 hours, low concentrations alone or in combination
Procedure: (§2) FIGS. 13A-13C: MRC-5 lung fibroblast cells were serum-starved 24 hours then treated with or without 10 ng/mL TGF-β for 24 hours (T-24 hr). […] FN: fibronectin, YAP: yes-activated protein, TAZ: transcriptional coactivator with PDZ-binding motif, and SMA(ACTA2): smooth muscle actin. Representative western blot is shown (n=2). […] Cells were fixed in −20C methanol for 15 minutes and immunolabeled for fibronectin. Cellomics arrayscan imaging was performed and staining intensity was quantified and analyzed for fibronectin expression on a per cell basis.
(§3) Turning now to FIGS. 13A-13E, in a clinical setting, it would be advantageous for the efficacy of the therapeutics that the activated fibroblasts be reversed to a quiescent state upon treatment. […] To test the combinations, the inventors obtained quantitative analysis of fibronectin staining in fibroblasts upon treatment with TGF-β in the presence or absence of drug combinations.

[5] = system: activated fibroblast phenotype; conditions: MRC-5 pre-activated with 10 ng/mL TGF-β 24 hours, then 24 hours treatment
Procedure: as §2, §3

CC(=O)OCOC(=O)CN(CC(=O)OCOC(C)=O)c1ccccc1OCCOc1ccccc1N(CC(=O)OCOC(C)=O)CC(=O)OCOC(C)=O [BAPTA-AM, Glycine, N,N′-[1,2-ethanediylbis(oxy-2,1-phenylene)]bis[N-[2-[(acetyloxy)methoxy]-2-oxoethyl]]-, bis[(acetyloxy)methyl] ester]
TGF-β-induced fibronectin expression, intracellular Ca2+ modulators (western blot) [1]: no effect on TGF-β-induced fibronectin expression

Cl.NC(=NCc1ccc(Cl)c(Cl)c1)NC(=O)c1nc(Cl)c(N)nc1N [DCB, 3′,4′-dichlorobenzamil hydrochloride]
TGF-β-induced fibronectin expression, intracellular Ca2+ modulators (western blot) [1]: able to prevent TGF-β-induced fibronectin expression in a dose-dependent manner

C[C@@H]1O[C@@H](O[C@@H]2C=C3CC[C@@H]4[C@H](CC[C@]5(C)[C@@H](c6ccc(=O)oc6)CC[C@]45O)[C@@]3(C)CC2)[C@H](O)[C@H](O)[C@H]1O [Proscillaridin A]
cell viability / metabolic activity (WPMY-1 cells): toxic to cells | cell viability / metabolic activity (WPMY-1 cells; listed as proscillaridin A): decreased metabolic activity | inhibition of fibronectin induction, western blot ([1]; WPMY-1, TGF-β, dose range of PsA): inhibits induction of fibronectin even a low nanomolar concentrations | IC50 / potency for inhibition of TGF-β-induced fibronectin (dose response) ([2]; WPMY-1, 0-100 uM, TGF-β 24 hour): lowest IC50 | inhibition of fibronectin induction, Cellomics based image analysis ([2]; WPMY-1, TGF-β plus PsA at 5 micromolar): potent inhibitor of fibronectin induction

CC(=O)O[C@H]1C[C@H](O[C@H]2[C@@H](O)C[C@H](O[C@H]3[C@@H](O)C[C@H](O[C@H]4CC[C@@]5(C)[C@H](CC[C@@H]6[C@@H]5C[C@@H](O)[C@]5(C)[C@@H](C7=CC(=O)OC7)CC[C@]65O)C4)O[C@@H]3C)O[C@@H]2C)O[C@H](C)[C@H]1O[C@@H]1O[C@H](CO)[C@@H](O)[C@H](O)[C@H]1O [lanatoside C]
cell viability / metabolic activity (WPMY-1 cells): no effect on cell viability

COC(=O)c1ccc2c(c1)NC(=O)/C2=C(\Nc1ccc(N(C)C(=O)CN2CCN(C)CC2)cc1)c1ccccc1 [nintedanib]
FGF signaling (TAZ upregulation) ([3]; MRC-5, 10 ng/mL FGF, nintedanib 200 nM, 24 hours): blocks FGF signaling | induction of activated fibroblast markers by TGF-β ([3]; MRC-5, 10 ng/mL TGF-β, nintedanib 200 nM, 24 hours): does not bock induction by TGF-β

C[C@@H]1O[C@@H](O[C@H]2C[C@@H](O)[C@]3(CO)[C@H]4[C@H](O)C[C@]5(C)[C@@H](C6=CC(=O)OC6)CC[C@]5(O)[C@@H]4CC[C@]3(O)C2)[C@H](O)[C@H](O)[C@H]1O [ouabain]
cell viability / metabolic activity (WPMY-1 cells): no effect on cell viability

Cc1cc(/C=C/c2ccc3cc(N(C)C)ccc3[n+]2C)c(C)n1-c1ccccc1 [pyrvinium]
activated fibroblast phenotype induced by TGF-β and FGF (fibronectin, YAP, TAZ, smooth muscle actin) ([3]; MRC-5, 10 ng/mL TGF-β and 20 ng/ml FGF, 24 hours): able to prevent the activated fibroblast phenotype | activated fibroblast phenotype upon TGF-β and FGF, compared with nintedanib ([3]; MRC-5, 10 ng/mL TGF-β and 20 ng/ml FGF, 24 hours, nintedanib 200 nM): able to block the activated fibroblast phenotype better than nintedanib | fibroblast activation from a combination of growth factors (TGF, FGF, IL8) ([3]; MRC-5, 10 ng/mL TGF-β, 20 ng/mL FGF, 20 ng/mL IL-8, digoxin 250 nM, pyrvinium 500 nM vs pirfenidone 500 μm, nintedanib 250 nM): able to block fibroblast activation from a combination of growth factors better than pirfenidone or nintedanib | fibronectin staining intensity per cell (Cellomics arrayscan) [4]: the levels of fibronectin are reduced | reversal of activated fibroblast phenotype (fibronectin, TAZ, smooth muscle actin) [5]: revert fibroblasts to the quiescent state

C/C=C(/C)C(=O)O[C@H]1C(C)=C2[C@H]([C@@H]1OC(=O)CCCCCCC)[C@@](C)(OC(C)=O)C[C@H](OC(=O)CCC)[C@@]1(O)[C@H]2OC(=O)[C@@]1(C)O [thapsigargin]
TGF-β-induced fibronectin expression, intracellular Ca2+ modulators (western blot) [1]: able to prevent TGF-β-induced fibronectin expression in a dose-dependent manner

verteporfin
TAZ levels ([3]; MRC-5, 10 ng/mL TGF-β, 24 hours): not reduced | induction of fibronectin, YAP, TAZ, smooth muscle actin by TGF-β ([3]; MRC-5, 10 ng/mL TGF-β, serum-free, 24 hours, dose escalation): represses TGF-β induced fibronectin and smooth muscle actin expression
